IC50 data for 19 compounds are collected here from US5220018A, “Cholecystokinin antagonists” (Merck & Co., Inc., priority 1992, dated 1993).

Where two headings read alike, the source gives them in different places.

One experiment deals with T1, CCK Receptor (Brain) (Cavia porcellus, UniProt H0VZC5).
T1 construct: the cortex was removed and homogenized in 25 mL ice-cold 0.32M sucrose; from tissue; host or cells: guinea pig cerebral cortex, P2 membrane pellet
T1 sequence (H0VZC5 1-426): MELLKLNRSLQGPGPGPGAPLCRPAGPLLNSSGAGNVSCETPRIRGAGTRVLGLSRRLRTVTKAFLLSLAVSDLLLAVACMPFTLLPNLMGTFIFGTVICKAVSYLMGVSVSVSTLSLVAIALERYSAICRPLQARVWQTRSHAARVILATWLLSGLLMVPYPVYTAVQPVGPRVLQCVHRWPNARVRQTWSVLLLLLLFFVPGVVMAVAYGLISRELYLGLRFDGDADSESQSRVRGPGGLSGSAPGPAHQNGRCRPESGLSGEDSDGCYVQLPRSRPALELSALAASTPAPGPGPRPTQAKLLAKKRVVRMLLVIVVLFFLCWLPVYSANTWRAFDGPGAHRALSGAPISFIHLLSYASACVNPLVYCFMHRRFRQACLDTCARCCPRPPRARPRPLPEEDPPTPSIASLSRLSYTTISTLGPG
In words: CCK Receptor Binding (Brain), inhibition of 125I-CCK-8 binding. Also noted: species or system Male Hartley guinea pigs. Here is the method: 2. CCK Receptor Binding (Brain)
CCK-8 sulphated was radiolabelled and the binding was performed according to the description for the pancreas method with minor modifications.
Male Hartley guinea pigs (300-500 g) were sacrificed by decapitation and the cortex was removed and homogenized in 25 mL ice-cold 0.32M sucrose. The homogenates were centrifuged at 1000 g for 10 minutes and the resulting supernatant was recentrifuged at 20,000 g for 20 minutes. […] All assays were run in duplicate. The reaction mixtures were incubated at 25° C. for 2 hours and then the reaction was terminated on Whatman GF/C filters by rapid filtration (Brandell 24 well cell Harvester) with 3×5 ml washes of cold 100 mM NaCl. The radioactivity on the filters was then counted with a LKB gamma counter.
(§1) Drug displacement studies were performed with at least 10 concentrations of compounds of formula 1 and the IC50 values were determined by regression analysis.

The target of the next experiment is T2, CCK Receptor (Pancreas) (Rattus norvegicus, UniProt P30551).
T2 construct: The whole pancreas was dissected free of fat tissue and was homogenized; from tissue; host or cells: rat whole pancreas, homogenate membranes
T2 sequence (P30551 1-444): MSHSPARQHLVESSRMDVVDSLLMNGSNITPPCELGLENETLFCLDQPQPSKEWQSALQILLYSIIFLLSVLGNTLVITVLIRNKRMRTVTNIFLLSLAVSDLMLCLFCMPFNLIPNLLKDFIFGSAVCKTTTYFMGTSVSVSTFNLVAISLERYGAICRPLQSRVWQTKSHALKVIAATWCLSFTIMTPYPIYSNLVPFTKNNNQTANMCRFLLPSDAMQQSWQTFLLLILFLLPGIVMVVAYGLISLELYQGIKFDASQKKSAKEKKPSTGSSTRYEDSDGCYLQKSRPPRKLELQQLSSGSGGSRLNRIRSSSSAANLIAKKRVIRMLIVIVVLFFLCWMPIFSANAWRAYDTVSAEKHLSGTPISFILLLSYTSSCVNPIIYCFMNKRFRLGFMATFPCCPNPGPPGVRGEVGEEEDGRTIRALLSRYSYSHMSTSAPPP
Description: biochemical. The experiment is classed as binding, Male Sprague-Dawley rats. Here is the method: 1. CCK Receptor Binding (Pancreas)
CCK-8 sulphated was radiolabelled with ^125 I-Bolton Hunter reagent (2000 Ci/mmole). Receptor binding was performed according to Chang and Lotti (Proc. Natl. Acad. Sci. 83, 4923-4926, 1986) with minor modifications.
Male Sprague-Dawley rats (150-200 g) were sacrificed by decapitation. The whole pancreas was dissected free of fat tissue and was homogenized in 25 volumes of ice-cold 10 mM Hepes buffer with 0.1% soya bean trypsin inhibitor (pH 7.4 at 25° C.) with a Kinematica Polytron. The homogenates were centrifuged at 47,800 g for 10 min. Pellets were resuspended in 10 volumes of binding assay buffer (20 mM Hepes, 1 mM EGTA, 5 mM MgCl2, 150 mM NaCl, bacitracin 0.25 mg/ml, soya bean trypsin inhibitor 0.1 mg/ml, and bovine serum albumin 2 mg/ml, pH 6.5 at 25° C.) using a teflon homogenizer, 15 strokes at 500 rpm. The homogenate was further diluted in binding assay buffer to give a final concentration of 0.5 mg original wet weight/1 ml buffer. […] All assays were run in duplicate. The reaction mixtures were incubated at 25° C. for 2 hours and the reaction terminated by rapid filtration (Brandell 24 well cell harvester) over Whatman GF/C filters, washing 3×4 mls with ice-cold 100 mM NaCl. The radioactivity on the filters was counted with a LKB gamma counter.
as §1

[1] abbreviates: guinea pig cortex membranes, 125I-CCK-8 50 pM, 25° C., 2 hours, read-out: IC50, 125I-CCK Brain.
[2] abbreviates: rat pancreas membranes, 125I-CCK-8 50 pM, 25° C., 2 hours, read-out: IC50, 125I-CCK Pancreas.

On to `CN1C(=O)[C@H](NC(=O)Nc2cccc(-c3nnn(C)n3)c2)N=C(c2ccccc2)c2ccccc21` [Example 33, N-{1,3-Dihydro-1-methyl-2-oxo-5-phenyl-1H-1,4-benzodiazepin-3-yl}-N'-{[3-(2-methyltetrazol-5-yl)phenyl]urea}], for which the IC50 at CCK Receptor (Brain) (setting [1]) amounted to 21 nM; on CCK Receptor (Pancreas), 1600 nM.
Turning to `CN1C(=O)[C@H](NC(=O)Nc2cccc(S(=O)(=O)NC(=O)NC(C)(C)C)c2)N=C(c2ccccc2)c2ccccc21` [Example 30, N-{1,3-Dihydro-1-methyl-2-oxo-5-phenyl-1H-1,4-benzodiazepin-3-yl}-N'-{[3-(N-(t-butylaminocarbonyl)sulfonamido)phenyl]urea}], the IC50 was 14 nM at CCK Receptor (Brain) (setting [1]) and over 3000 nM at CCK Receptor (Pancreas) (setting [2]).
Turning to `CC(C)CN1C(=O)C(NC(=O)Nc2cccc(-c3nnn[nH]3)c2)N=C(c2ccccc2F)c2ccccc21` (racemic) [Example 21, N-[3(R,S)-2,3-Dihydro-5-(2-fluorophenyl)-1-(2-methylpropyl)-2-oxo-1H-1,4-benzodiazepin-3-yl]-N'-{[3-(tetrazol-5-yl)phenyl]urea}], the IC50 on CCK Receptor (Brain) (setting [1]) was found to be 1.4 nM; on CCK Receptor (Pancreas) (setting [2]), 150 nM.
The matching figures for `CC(=O)NS(=O)(=O)c1cccc(NC(=O)N[C@@H]2N=C(c3ccccc3)c3ccccc3N(CC3CC3)C2=O)c1` [Example 27, N-{1,3-Dihydro-1-cyclopropylmethyl-2-oxo-5-phenyl-1H-1,4-benzodiazepin-3-yl}-N'-{[3-(N-(acetyl)sulfonamido)phenyl]urea}]: 0.55 nM and 4600 nM.
Take `CCCN1C(=O)[C@H](NC(=O)Nc2cccc(-c3nnn[nH]3)c2)N=C(c2ccccc2)c2ccccc21` [Example 18, N-{1,3-Dihydro-1-n-propyl-2-oxo-5-phenyl-1H-1,4-benzodiazepin-3-yl}-N'-{[3-(1H-tetrazol-5-yl)phenyl]urea}]: the IC50 at CCK Receptor (Brain) (setting [1]) worked out at 0.067 nM; at CCK Receptor (Pancreas) (setting [2]) it was 1100 nM.
With `CN1C(=O)[C@H](NC(=O)Nc2cccc(C(=O)NS(C)(=O)=O)c2)N=C(c2ccccc2)c2ccccc21` [Example 23, N-{1,3-Dihydro-1-methyl-2-oxo-5-phenyl-1H-1,4-benzodiazepin-3-yl}-N'-{[3-(N-(methanesulfonyl)carboxamido)phenyl]urea}], the IC50 on CCK Receptor (Brain) (setting [1]) worked out at 12 nM; against CCK Receptor (Pancreas), 1500 nM.
For the compound `CC(C)S(=O)(=O)NC(=O)c1cccc(NC(=O)N[C@@H]2N=C(c3ccccc3)c3ccccc3N(C)C2=O)c1` [Example 24, N-{1,3-Dihydro-1-methyl-2-oxo-5-phenyl-1H-1,4-benzodiazepin-3-yl}-N'-{[3-(N-(2-propylsulfonyl)carboxamido)phenyl]urea}], the IC50 at CCK Receptor (Brain) (setting [1]) turned out to be 7.6 nM; at CCK Receptor (Pancreas) (setting [2]) it was 2400 nM.
The matching figures for `O=C(Nc1cccc(-c2nnn[nH]2)c1)N[C@@H]1N=C(c2ccccc2)c2ccccc2N(CC2CC2)C1=O` [Example 20, N-{1,3-Dihydro-1-cyclopropylmethyl-2-oxo-5-phenyl-1H-1,4-benzodiazepin-3-yl}-N'-{[3-(1H-tetrazol-5-yl)phenyl]urea}]: 0.4 nM and 870000 nM.
The matching figures for `CC(=O)c1cccc(NC(=O)N[C@@H]2N=C(c3ccccc3)c3ccccc3N(C)C2=O)c1` [Example 8, N-{1,3-Dihydro-1-methyl-2-oxo-5-phenyl-1H-1,4-benzodiazepin-3-yl}-N'-{[3-(acetyl)phenyl]urea}]: 3.6 nM and 1200 nM.
On to `CN1C(=O)[C@H](NC(=O)Nc2ccc(Cl)nc2)N=C(c2ccccc2)c2ccccc21` [Example 5, N-{1,3-Dihydro-1-methyl-2-oxo-5-phenyl-1H-1,4-benzodiazepin-3-yl}-N'-{[5-(2-chloro)pyridyl]urea}], for which the IC50 was 46 nM on CCK Receptor (Brain) and over 3000 nM on CCK Receptor (Pancreas) (setting [2]).
Consider `CC(C)N1C(=O)C(NC(=O)Nc2cccc(-c3nnn[nH]3)c2)N=C(c2ccccc2)c2ccccc21` (centres unmarked) [Example 4, N-{1,3-Dihydro-1-[2-propyl]-2-oxo-5-phenyl-1H-1,4-benzodiazepin-3-yl}-N'-{[3-(1H-tetrazol-5-yl)phenyl]urea}], for which the IC50 was 4.1 nM on CCK Receptor (Brain) (setting [1]) and 200 nM at CCK Receptor (Pancreas) (setting [2]).
As for `CN1C(=O)[C@H](NC(=O)Nc2cccc(NS(N)(=O)=O)c2)N=C(c2ccccc2)c2ccccc21` [Example 12, N-{1,3-Dihydro-1-methyl-2-oxo-5-phenyl-1H-1,4-benzodiazepin-3-yl}-N'-{[3-(aminosulfonamido)phenyl]urea}], the IC50 at CCK Receptor (Brain) (setting [1]) was 32 nM; on CCK Receptor (Pancreas) (setting [2]), 530 nM.
With `CN1C(=O)[C@H](NC(=O)Nc2cccc(/C=C/C(=O)O)c2)N=C(c2ccccc2)c2ccccc21` [Example 32, N-{1,3-Dihydro-1-methyl-2-oxo-5-phenyl-1H-1,4-benzodiazepin-3-yl}-N'-{[3-(trans-carboxyethylene)phenyl]urea}], the IC50 on CCK Receptor (Brain) (setting [1]) came to 8.9 nM; on CCK Receptor (Pancreas) (setting [2]) it was 12 nM.
The matching figures for `CN1C(=O)[C@H](NC(=O)Nc2cccc(S(=O)(=O)NC(=O)C3CC3(C)C)c2)N=C(c2ccccc2)c2ccccc21` (some centres unmarked) [Example 29, N-{1,3-Dihydro-1-methyl-2-oxo-5-phenyl-1H-1,4-benzodiazepin-3-yl}-N'-{[3-(N-(2,2-dimethylcyclopropylcarbonyl)sulfonamido)phenyl]urea}]: 11 nM and over 3000 nM.
The matching figures for `CC(=O)NC(=O)c1cccc(NC(=O)N[C@@H]2N=C(c3ccccc3)c3ccccc3N(C)C2=O)c1` [Example 22, N-{1,3-Dihydro-1-methyl-2-oxo-5-phenyl-1H-1,4-benzodiazepin-3-yl}-N'-{[3-(N-acetylcarboxamido)phenyl]urea}]: 55 nM and 3800 nM.
Turning to `CN1C(=O)[C@H](NC(=O)Nc2cccc(N)c2)N=C(c2ccccc2)c2ccccc21` [Example 9, N-{1,3-Dihydro-1-methyl-2-oxo-5-phenyl-1H-1,4-benzodiazepin-3-yl}-N'-{[3-(amino)phenyl]urea}], the concentration for half-maximal inhibition (IC50) on CCK Receptor (Brain) (setting [1]) was 33 nM; on CCK Receptor (Pancreas) (setting [2]), over 3000 nM.
With `CN1C(=O)[C@H](NC(=O)Nc2cccc(C(=O)NS(=O)(=O)C(C)(C)C)c2)N=C(c2ccccc2)c2ccccc21` [Example 25, N-{1,3-Dihydro-1-methyl-2-oxo-5-phenyl-1H-1,4-benzodiazepin-3-yl}-N'-{[3-(N-(t-butylsulfonyl)carboxamido)phenyl]urea}], the IC50 on CCK Receptor (Brain) (setting [1]) was 0.38 nM; on CCK Receptor (Pancreas) (setting [2]), over 3000 nM.
In the case of `CN1C(=O)[C@H](NC(=O)Nc2cccc(S(=O)(=O)NC(=O)C(C)(C)C)c2)N=C(c2ccccc2)c2ccccc21` [Example 28, N-{1,3-Dihydro-1-methyl-2-oxo-5-phenyl-1H-1,4-benzodiazepin-3-yl}-N'-{[3-(N-(1,1-dimethylethylcarbonyl)sulfonamido)phenyl]urea}], the values for the IC50 on CCK Receptor (Brain) (setting [1]) and at CCK Receptor (Pancreas) (setting [2]) were 12 nM and over 3000 nM, respectively.
The matching figures for `CN1C(=O)[C@H](NC(=O)Nc2cccc(S(N)(=O)=O)c2)N=C(c2ccccc2)c2ccccc21` [Example 14, N-{1,3-Dihydro-1-methyl-2-oxo-5-phenyl-1H-1,4-benzodiazepin-3-yl}-N'-{[3-(aminosulfonyl)phenyl]urea}]: 74 nM and 4400 nM.

Broadly, the IC50 is the midpoint of a concentration-inhibition curve.
